Laboratory results: ChEMBL document CHEMBL5154718, “Synthesis, biological evaluation, and molecular modeling simulations of new heterocyclic hybrids as multi-targeted anti-Alzheimer's agents” (Eur J Med Chem, 2022)
Active and inactive are the calls of the source. The rule behind the calls is not given here.

Columns and labels:
Acetylcholinesterase [1] = biological target: T1, Acetylcholinesterase (Homo sapiens, UniProt P22303)
Description: Inhibition of C-terminal 6His-tagged human recombinant AChE (32 to 614 residues) expressed in HEK293 cells using acetylthiocholine iodide as substrate preincubated for 5 mins followed by substrate addition by Ellman's method

[2] = Metal chelating activity assessed as Fe2+-compound complex formation by measuring bathochromic shift at 30 to 60 uM by UV-visible spectrophotometry; details: dose 30-60 µM
[3] = biological target: T2, Amyloid-beta precursor protein (Homo sapiens, UniProt P05067); test: Inhibition of amyloid beta (1 to 42 ) (unknown origin) self aggregation at 25 uM measured after 3 hrs by ThT fluorescence assay relative to control
animal or person = type: functional; details: Rattus norvegicus, Sprague-Dawley, Brain, route ip, time 1 hrs
in vivo = details: Sprague-Dawley, rat, ip
Description: Toxicity in Sprague-Dawley rat assessed as median lethal dose administered intraperitoneally as single dose

[4] = Metal chelating activity assessed as Cu2+-compound complex formation by measuring bathochromic shift at 30 to 60 uM by UV-visible spectrophotometry; details: dose 30-60 µM
[5] = Metal chelating activity assessed as Fe2+-compound complex formation by measuring hyperchromic shift at 30 to 60 uM by UV-visible spectrophotometry; details: dose 30-60 µM
AChE = type: toxicity, cell-based; details: human, probe acetylthiocholine iodide; read-out: Ratio IC50
[6] = Metal chelating activity assessed as Zn2+-compound complex formation by measuring hyperchromic shift at 30 to 60 uM by UV-visible spectrophotometry; details: dose 30-60 µM
[7] = Metal chelating activity assessed as Zn2+-compound complex formation by measuring bathochromic shift at 30 to 60 uM by UV-visible spectrophotometry; details: dose 30-60 µM
in vitro = details: human, HepG2 cells
Description: Cytotoxicity against human HepG2 cells assessed as cell growth inhibition incubated for 72 hrs by MTT assay

Cholinesterase [8] = biological target: T3, Cholinesterase (Homo sapiens, UniProt P06276)
Description: Inhibition of C-terminal 6His-tagged human recombinant BuChE (29 to 602 residues) using butyrylthiocholine iodide as substrate preincubated for 5 mins followed by substrate addition by Ellman's method

[9] = biological target: T2, Amyloid-beta precursor protein; test: Inhibition of amyloid beta (1 to 42 ) (unknown origin) self aggregation measured after 3 hrs by ThT fluorescence assay
[10] = Metal chelating activity assessed as Cu2+-compound complex formation by measuring hyperchromic shift at 30 to 60 uM by UV-visible spectrophotometry; details: dose 30-60 µM
[11] = Toxicity in Sprague-Dawley rat assessed as mortality up to 120 mg/kg, ip administered as single dose measured after 24 hrs; type: organism-based; details: in vivo
Acetylcholinesterase [12] = biological target: T1, Acetylcholinesterase; test: Inhibition of human recombinant AChE using acetylthiocholine as substrate preincubated for 5 mins followed by substrate addition by Ellman's method
Cholinesterase [13] = biological target: T3, Cholinesterase; test: Inhibition of human plasma BuChE using butyrylthiocholine as substrate preincubated for 5 mins followed by substrate addition by Ellman's method; type: cell-free
[14] = Metal chelating activity assessed as Zn2+-compound complex formation by measuring hypochromic shift at 30 to 60 uM by UV-visible spectrophotometry; details: dose 30-60 µM

T1 sequence (P22303 whole entry): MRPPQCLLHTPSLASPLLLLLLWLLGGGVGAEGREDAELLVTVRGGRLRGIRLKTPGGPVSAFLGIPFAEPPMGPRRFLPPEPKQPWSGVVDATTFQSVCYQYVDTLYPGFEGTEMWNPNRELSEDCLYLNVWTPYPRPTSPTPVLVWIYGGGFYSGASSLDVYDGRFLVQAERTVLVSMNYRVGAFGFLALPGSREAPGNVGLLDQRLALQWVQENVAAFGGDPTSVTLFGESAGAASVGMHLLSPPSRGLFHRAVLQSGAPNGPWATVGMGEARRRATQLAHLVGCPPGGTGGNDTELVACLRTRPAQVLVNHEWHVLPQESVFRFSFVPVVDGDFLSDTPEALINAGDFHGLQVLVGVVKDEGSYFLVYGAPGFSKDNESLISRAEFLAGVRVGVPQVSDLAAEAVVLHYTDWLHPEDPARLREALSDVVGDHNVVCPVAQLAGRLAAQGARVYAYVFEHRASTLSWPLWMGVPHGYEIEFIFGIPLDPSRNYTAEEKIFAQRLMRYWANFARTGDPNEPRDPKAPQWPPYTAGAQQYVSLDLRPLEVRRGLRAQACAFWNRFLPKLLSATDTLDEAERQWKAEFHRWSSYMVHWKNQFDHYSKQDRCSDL
T3 sequence (P06276 whole entry): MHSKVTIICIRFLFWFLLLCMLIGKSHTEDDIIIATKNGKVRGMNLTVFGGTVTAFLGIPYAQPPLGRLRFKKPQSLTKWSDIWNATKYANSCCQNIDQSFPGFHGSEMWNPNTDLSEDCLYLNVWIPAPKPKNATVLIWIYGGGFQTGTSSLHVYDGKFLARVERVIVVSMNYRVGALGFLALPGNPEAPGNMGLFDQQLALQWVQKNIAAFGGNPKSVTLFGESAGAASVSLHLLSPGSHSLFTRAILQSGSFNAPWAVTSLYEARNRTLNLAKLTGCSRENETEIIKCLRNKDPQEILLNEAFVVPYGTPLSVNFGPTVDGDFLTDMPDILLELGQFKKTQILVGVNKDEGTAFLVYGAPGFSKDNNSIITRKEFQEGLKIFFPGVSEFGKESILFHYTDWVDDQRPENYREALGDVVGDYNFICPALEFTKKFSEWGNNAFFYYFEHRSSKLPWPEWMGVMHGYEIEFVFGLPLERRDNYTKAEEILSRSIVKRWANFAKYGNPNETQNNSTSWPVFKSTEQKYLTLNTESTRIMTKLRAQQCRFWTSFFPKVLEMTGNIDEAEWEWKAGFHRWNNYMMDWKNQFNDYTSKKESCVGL
T2 sequence (P05067 whole entry): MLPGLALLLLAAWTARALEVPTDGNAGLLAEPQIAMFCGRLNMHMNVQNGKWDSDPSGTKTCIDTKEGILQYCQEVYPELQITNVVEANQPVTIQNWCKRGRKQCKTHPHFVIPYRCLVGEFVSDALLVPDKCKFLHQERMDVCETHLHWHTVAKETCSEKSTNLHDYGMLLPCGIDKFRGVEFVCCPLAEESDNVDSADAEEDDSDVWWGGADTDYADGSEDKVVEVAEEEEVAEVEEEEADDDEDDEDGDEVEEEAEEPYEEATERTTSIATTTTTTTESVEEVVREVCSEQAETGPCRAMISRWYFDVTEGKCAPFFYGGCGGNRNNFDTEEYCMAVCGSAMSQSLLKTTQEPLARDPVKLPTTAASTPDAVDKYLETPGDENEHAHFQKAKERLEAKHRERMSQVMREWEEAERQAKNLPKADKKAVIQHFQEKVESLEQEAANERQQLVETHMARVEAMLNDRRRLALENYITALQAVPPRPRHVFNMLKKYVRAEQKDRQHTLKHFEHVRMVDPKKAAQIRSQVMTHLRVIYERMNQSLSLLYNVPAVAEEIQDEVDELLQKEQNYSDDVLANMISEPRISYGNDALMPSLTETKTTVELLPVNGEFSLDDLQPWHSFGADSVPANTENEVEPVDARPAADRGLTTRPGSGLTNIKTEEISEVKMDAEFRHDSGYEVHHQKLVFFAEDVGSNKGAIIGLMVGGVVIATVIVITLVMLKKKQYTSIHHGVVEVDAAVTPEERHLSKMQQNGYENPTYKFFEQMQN

| SMILES | IC50 (Acetylcholinesterase [1]) [µM] | inhibition [3] [%] | IC50 (Cholinesterase [8]) [µM] | IC50 [9] [µM] | further results |
| --- | --- | --- | --- | --- | --- |
| Cc1ccc2nc3c(c(NCCN4CCCCC4)c2c1)CCCC3 | 2.54 |  |  |  |  |
| O=[N+]([O-])c1ccc2nc3c(c(N4CCCCC4)c2c1)CCCC3 | 1.89 |  |  |  |  |
| Cc1ccc2nc3c(c(N4CCCCC4)c2c1)CCCC3 | 0.118 | 61.9 | 1.99 | 6.7 | Activity [2]: Active; inhibition in vivo at 10 mg/kg (animal or person): 35%; LD50 (in vivo): 42 mg/kg; Activity [4]: Active; Activity [5]: Active; selectivity ratio at 72 h (AChE): 321; Activity [6]: Active; Activity [7]: Active; IC50 at 72 h (in vitro): 37.9 µM; Activity [10]: Active |
| CN1CCN(c2c3c(nc4ccc([N+](=O)[O-])cc24)CCCC3)CC1 | 0.245 | 66.4 | 0.166 | 4.49 |  |
| O=[N+]([O-])c1ccc2nc3c(c(N4CCOCC4)c2c1)CCCC3 | 1.22 |  |  |  |  |
| O=C(CN1CCN(c2ccccc2)CC1)Nc1n[nH]c2ncccc12 | 1.95 |  |  |  |  |
| Cc1ccc2nc3c(c(NCCN4CCN(C)CC4)c2c1)CCCC3 | 0.974 |  |  |  |  |
| O=[N+]([O-])c1ccc2nc3c(c(Nc4[nH]nc5ncccc45)c2c1)CCCC3 | 0.299 | 81.5 | 0.429 | 0.777 | Activity [4]: Active; Activity [5]: Active; selectivity ratio at 72 h (AChE): 105; Activity [6]: Active; IC50 at 72 h (in vitro): 31.3 µM; Activity [10]: Active |
| Cc1ccc2nc3c(c(NCCN4CCOCC4)c2c1)CCCC3 | 0.131 | 54.6 | 3.13 | 15 | Activity [2]: Active; inhibition in vivo at 10 mg/kg (animal or person): 35%; LD50 (in vivo): 96.5 mg/kg; Activity [4]: Active; Activity [5]: Active; selectivity ratio at 72 h (AChE): 72.8; Activity [6]: Active; Activity [7]: Active; IC50 at 72 h (in vitro): 9.53 µM; Activity [10]: Active |
| O=C(CCN1CCN(Cc2ccccc2)CC1)Nc1n[nH]c2ncccc12 | 0.034 | 55.5 | 3.57 | 13.3 | inhibition in vivo at 10 mg/kg (animal or person): 35%; Activity [4]: Active; Activity [5]: Active; selectivity ratio at 72 h (AChE): 735; Activity [11]: Non-Toxic; Activity [6]: Active; IC50 at 72 h (in vitro): 25 µM |
| CC(=O)Nc1ccc2nc3c(c(N4CCCCC4)c2c1)CCCC3 | 0.301 | 77.3 | 0.459 | 1.3 |  |
| c1ccc2c(NCCN3CCOCC3)c3c(nc2c1)CCCC3 |  |  |  |  | IC50 (Acetylcholinesterase [12]): 0.093 µM; IC50 (Cholinesterase [13]): 0.016 µM |
| Cc1ccc2nc3c(c(N4CCOCC4)c2c1)CCCC3 | 1.78 |  |  |  |  |
| O=C(Cn1nc2ncccc2c1NC(=O)Cn1nc2ncccc2c1NC(=O)CN1CCN(Cc2ccccc2)CC1)Nc1[nH]nc2ncccc12 | 18 |  |  |  |  |
| O=C(CCN1CCCCC1)Nc1n[nH]c2ncccc12 | 0.658 |  |  |  |  |
| CC(=O)Nc1ccc2nc3c(c(N4CCOCC4)c2c1)CCCC3 | 1.11 |  |  |  |  |
| COc1cc2c(cc1OC)C(=O)C(CC1CCN(Cc3ccccc3)CC1)C2 (centres undefined) [DONEPEZIL] |  |  |  |  | inhibition in vivo at 10 mg/kg (animal or person): 46.5%; LD50 (in vivo): 32.5 mg/kg |
| Cc1ccc2nc3c(c(N4CCN(C)CC4)c2c1)CCCC3 | 0.44 |  |  |  |  |
| Cc1ccc2nc3c(c(Nc4[nH]nc5ncccc45)c2c1)CCCC3 | 0.811 |  |  |  |  |
| O=C(CCN1CCN(c2ccccc2)CC1)Nc1n[nH]c2ncccc12 | 0.23 | 65.5 | 0.782 | 1.98 |  |
| COc1cc2nc3c(c(N4CCOCC4)c2cc1OC)CCCC3 | 0.062 | 78.6 | 0.767 | 1.23 | Activity [14]: Active; Activity [2]: Active; inhibition in vivo at 10 mg/kg (animal or person): 35%; Activity [4]: Active; Activity [5]: Active; selectivity ratio at 72 h (AChE): 102; Activity [11]: Non-Toxic; Activity [6]: Active; IC50 at 72 h (in vitro): 6.3 µM; Activity [10]: Active |
| Cc1ccc2nc3c(c(N4CCN(c5c6c(nc7ccc(C)cc57)CCCC6)CC4)c2c1)CCCC3 | 0.521 |  |  |  |  |
| O=C(CCN1CCOCC1)Nc1n[nH]c2ncccc12 | 0.275 | 71.8 | 0.473 | 2.13 |  |
| O=C(CN1CCN(Cc2ccccc2)CC1)Nc1n[nH]c2ncccc12 | 0.301 | 65 | 2.81 | 5.67 |  |
| CN1CCN(CCC(=O)Nc2n[nH]c3ncccc23)CC1 | 0.844 |  |  |  |  |
| Cc1ccc2nc3c(c(NCCO)c2c1)CCCC3 | 0.18 | 69.8 | 0.84 | 2.95 |  |
| Cc1ccc2nc3c(c(NCCCl)c2c1)CCCC3 | 0.763 |  |  |  |  |
| Nc1nn(-c2c3c(nc4ccc([N+](=O)[O-])cc24)CCCC3)c2ncccc12 | 0.056 | 48 | 5.22 | 31.8 | Activity [14]: Active; Activity [5]: Active; selectivity ratio at 72 h (AChE): 800; IC50 at 72 h (in vitro): 44.8 µM |
| Cc1ccc2nc3c(c(NCCN4CCN(Cc5ccccc5)CC4)c2c1)CCCC3 | 6.38 |  |  |  |  |
